Among the data in patent US20070041904A1, “Peptides whose uptake by cells is controllable” (priority 2003, published 2007) are inhibition values, retold here.

By inhibition is commonly meant how much of the control response was suppressed.

The test deals with MDA-MB-231 cells. In words: ACPP uptake in 3D Matrigel culture, MDA-MB-231. Particulars: Homo sapiens, 0.1 mM GM6001, read-out: inhibition of uptake of PLGLAG-containing ACPP. The class given is cell-based. As to the method:
FIG. 56: MDA-MB-231 cells in 3-D culture make enough MMPs to take up ACPP over 24 hr. The left two columns show results with e9-XPLGLAG-r9-k(Cy5) without or with 0.1 mM GM6001, a general inhibitor of MMPs. GM6001 also reduces invasiveness of the cells, explaining why the cell cluster is smaller. The right two columns show e9-Xplglag-r9-k(Cy5) as a nonhydrolyzable negative control and r9-k(Cy5) as a positive control. […] Note that these ACPPs have no macromolecular carrier, because there is no need to hinder kidney excretion and because the macromolecular carriers seem to hinder diffusion through the Matrigel and into these organoids, which lack active circulation.
3D tissue cultures in matrigel (FIG. 53) may also be used in the practice of this invention. Such 3D cultures are more realistic models than isolated tumor cells, and offer higher-resolution analysis than is possible in live animals. […]
For these studies, tricine gels, fluorescence imaging, and flow cytometry protocols were used to quantify cleavage and uptake of ACPPs into the 3D cultures. Fluorescence imaging allowed detection of total fluorescence of surface and intracellular peptide, whereas flow cytometry measured fluorescence remaining inside cells after clusters have been digested into single cells and stripped of surface binding via trypsinization. […]

In the case of `CNC(=O)[C@H](Cc1c[nH]c2ccccc12)NC(=O)[C@@H](CC(=O)NO)CC(C)C` [GM6001], the inhibition at 100 µM is roughly 50%.
